The structures appear in SMILES notation.

One experiment concerns the target T1, human mGluR5d (Homo sapiens, UniProt P41594).
T1 construct: expressed in transfected cells
The experiment can be described thus: Assay of Group I receptor antagonist activity (FLIPR [Ca2+]i mobilization; secondary IP3 turnover) in cells expressing mGluR5d. The class given is cell-based. The note with it: read-out: mGluR5 IC50. As to the method:
(§1) For FLIPR analysis, cells expressing human mGluR5d or recombinant mGluR1 as described in WO97/05252 were seeded on collagen coated clear bottom 96-well plates with black sides and analysis of [Ca^2+]i mobilization was done 24 h after seeding. FLIPR experiments were done using a laser setting of 0.800 W and a 0.4 second CCD camera shutter speed. Each FLIPR experiment was initiated with 160 μl of buffer present in each well of the cell plate. After each addition of the compound, the fluorescence signal was sampled 50 times at 1 second intervals followed by 3 samples at 5 second intervals. Responses were measured as the peak height of the response within the sample period. EC50 and IC50 determinations were made from data obtained from 8-point concentration response curves (CRC) performed in duplicate. Agonist CRC were generated by scaling all responses to the maximal response observed for the plate. […]
(§2) We have validated a secondary functional assay for mGluR5d or recombinant mGluR1 as described in WO97/05252 based on Inositol Phosphate (IP3) turnover. IP3 accumulation is measured as an index of receptor mediated phospholipase C turnover. […] Antagonist activity was determined by pre-incubating test compounds for 15 min, then incubating in the presence of glutamate (80 μM) or DHPG (30 μM) for 30 min. […]

For the next experiment, the target named is T2, recombinant mGluR1 (Homo sapiens, UniProt Q13255).
T2 construct: expressed in transfected cells
As to the kind of experiment: Assay of Group I receptor antagonist activity (FLIPR [Ca2+]i mobilization; secondary IP3 turnover) in cells expressing mGluR1. It counts as cell-based. As to the method:
as §1, §2

T2 sequence (Q13255 19-1194): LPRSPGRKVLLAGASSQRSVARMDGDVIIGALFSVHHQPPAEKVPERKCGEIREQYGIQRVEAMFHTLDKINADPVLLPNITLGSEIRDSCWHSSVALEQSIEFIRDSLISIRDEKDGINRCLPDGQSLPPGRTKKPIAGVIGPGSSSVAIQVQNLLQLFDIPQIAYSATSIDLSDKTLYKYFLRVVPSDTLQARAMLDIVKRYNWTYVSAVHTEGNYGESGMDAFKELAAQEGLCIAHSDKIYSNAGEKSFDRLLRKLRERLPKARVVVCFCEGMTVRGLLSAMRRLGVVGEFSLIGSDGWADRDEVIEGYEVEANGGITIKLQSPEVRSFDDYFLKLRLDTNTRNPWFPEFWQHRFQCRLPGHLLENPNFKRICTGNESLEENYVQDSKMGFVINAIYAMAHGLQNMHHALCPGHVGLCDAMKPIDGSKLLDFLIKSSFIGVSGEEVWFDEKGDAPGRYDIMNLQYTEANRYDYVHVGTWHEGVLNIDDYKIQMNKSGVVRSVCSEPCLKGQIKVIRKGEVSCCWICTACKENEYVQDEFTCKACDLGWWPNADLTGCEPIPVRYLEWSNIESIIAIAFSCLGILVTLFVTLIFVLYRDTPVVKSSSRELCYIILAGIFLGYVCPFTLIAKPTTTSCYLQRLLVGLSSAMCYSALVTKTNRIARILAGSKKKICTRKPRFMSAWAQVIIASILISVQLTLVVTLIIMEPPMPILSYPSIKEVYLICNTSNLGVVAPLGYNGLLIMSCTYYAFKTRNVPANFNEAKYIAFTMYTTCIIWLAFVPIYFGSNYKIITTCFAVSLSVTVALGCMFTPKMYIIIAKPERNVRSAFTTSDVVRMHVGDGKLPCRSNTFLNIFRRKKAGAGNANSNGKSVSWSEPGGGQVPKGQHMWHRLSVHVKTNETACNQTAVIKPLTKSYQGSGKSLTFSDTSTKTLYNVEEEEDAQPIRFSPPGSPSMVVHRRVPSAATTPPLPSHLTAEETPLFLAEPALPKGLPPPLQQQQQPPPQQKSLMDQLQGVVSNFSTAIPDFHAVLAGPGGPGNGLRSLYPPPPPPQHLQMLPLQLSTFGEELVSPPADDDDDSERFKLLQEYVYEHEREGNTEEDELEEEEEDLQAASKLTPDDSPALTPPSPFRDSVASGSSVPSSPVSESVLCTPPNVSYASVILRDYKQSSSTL
T1 sequence (P41594 21-942 isoform P41594-3 limits assumed): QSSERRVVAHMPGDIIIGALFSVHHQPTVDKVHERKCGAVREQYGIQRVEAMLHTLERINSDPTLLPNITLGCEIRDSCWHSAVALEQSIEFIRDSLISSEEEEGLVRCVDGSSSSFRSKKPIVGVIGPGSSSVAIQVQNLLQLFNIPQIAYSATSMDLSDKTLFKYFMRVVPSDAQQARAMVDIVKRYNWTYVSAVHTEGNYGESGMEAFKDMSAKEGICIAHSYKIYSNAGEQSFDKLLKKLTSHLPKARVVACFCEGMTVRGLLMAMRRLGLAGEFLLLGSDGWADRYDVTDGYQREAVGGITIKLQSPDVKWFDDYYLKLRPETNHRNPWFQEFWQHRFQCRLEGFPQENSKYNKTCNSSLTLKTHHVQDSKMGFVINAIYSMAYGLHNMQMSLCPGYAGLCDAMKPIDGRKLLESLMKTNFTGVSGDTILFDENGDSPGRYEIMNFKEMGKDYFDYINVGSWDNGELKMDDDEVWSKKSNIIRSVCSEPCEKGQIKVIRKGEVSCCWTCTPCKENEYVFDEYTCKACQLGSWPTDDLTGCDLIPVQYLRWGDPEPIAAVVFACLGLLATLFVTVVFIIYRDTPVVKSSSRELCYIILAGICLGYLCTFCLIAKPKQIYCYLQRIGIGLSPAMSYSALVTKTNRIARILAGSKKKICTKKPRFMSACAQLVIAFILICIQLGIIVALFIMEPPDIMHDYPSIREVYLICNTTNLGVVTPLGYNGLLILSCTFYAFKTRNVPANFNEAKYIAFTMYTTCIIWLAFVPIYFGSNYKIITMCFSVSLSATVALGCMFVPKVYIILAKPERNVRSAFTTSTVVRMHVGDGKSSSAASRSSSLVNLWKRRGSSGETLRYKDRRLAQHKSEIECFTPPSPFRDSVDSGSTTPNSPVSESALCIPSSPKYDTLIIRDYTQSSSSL

For `CC1CCc2nc(C(=O)N[C@H]3CC[C@H](C)CC3)cnc2C1` (relative stereo) [6-methyl-N-(trans-4-methylcyclohexyl)-5,6,7,8-tetrahydroquinoxaline-2-carboxamide], the values for the half-maximal inhibitory concentration (IC50) at human mGluR5d and on recombinant mGluR1 were 7.29 µM and 0.052 µM, respectively.

As a reminder, the IC50 is the concentration that inhibits the measured activity by half.

Source of the values: patent US20050004130A1, “New metabotropic glutamate receptor compounds” (AstraZeneca and NPS Pharmaceuticals, Inc., priority 2003, published 2005).
